Data as given in patent US11166460B2, “α-amino acrylate microbicide, and preparation method therefor and uses thereof” (priority 2017, dated 2021).
Converted amounts (≈) assume the structure as drawn. Read-outs that look alike come from different tables or passages of the source.

Columns and labels:
Sclerotinia sclerotiorum = assay: microbe, parasite or virus in culture; assay type: cell-based; conditions: Sclerotinia sclerotiorum; for inhibition at 50 µg/mL: 50 μg/mL
Physalospora piricola = assay: Fungicidal activity, fungi growth rate method, PP; assay type: cell-based; conditions: 50 μg/mL
Alternaria solani = assay: Fungicidal activity, fungi growth rate method, AS; assay type: cell-based; conditions: Alternaria solani, 50 μg/mL
Rhizoctonia cerealis = assay: Fungicidal activity, fungi growth rate method, RC; assay type: cell-based; conditions: Ceratobasidium cereale, 50 μg/mL
Pellicularia sasakii = assay: Fungicidal activity, fungi growth rate method, PS; assay type: cell-based; conditions: 50 μg/mL
[1] = system: tobacco mosaic virus (TMV); assay: Anti-TMV inactivation activity (inactivation mode), compound mixed with TMV before inoculation of tobacco leaves; assay type: in vivo; conditions: Tobacco mosaic virus, read-out: Anti-TMV activity, Inactivation effect (inhibition)
[2] = system: tobacco mosaic virus (TMV); assay: Anti-TMV inducing activity (induction mode), tobacco seedlings; assay type: in vivo; conditions: Tobacco mosaic virus, read-out: Anti-TMV activity, Induction effect (inhibition), 100 μg/mL, tobacco seedlings
Botrytis cinerea = assay: Fungicidal activity, fungi growth rate method, BC; assay type: cell-based; conditions: Botrytis cinerea, 50 μg/mL
[3] = system: tobacco mosaic virus (TMV); assay: Anti-TMV curative activity (treatment mode), live friction inoculation on tobacco seedlings; assay type: in vivo; conditions: Tobacco mosaic virus, read-out: Anti-TMV activity, Curative effect (inhibition), 100 μg/mL, tobacco seedlings, checked on seventh day
[4] = system: Phytophthora infestans (Mont) de Bary; assay: microbe, parasite or virus in culture; assay type: cell-based; conditions: Phytophthora infestans
wheat Gibberella zeae = assay: microbe, parasite or virus in culture; assay type: cell-based; conditions: Fusarium graminearum
[5] = system: tobacco mosaic virus (TMV); assay: Anti-TMV protective activity (protection mode), live friction inoculation on tobacco seedlings; assay type: in vivo; conditions: Tobacco mosaic virus, read-out: Anti-TMV activity, Protection effect (inhibition)
Cercospora arachidicola = assay: Fungicidal activity, fungi growth rate method, CA; assay type: cell-based; conditions: Mycosphaerella arachidis, 50 μg/mL
[6] = read-out: Fungicidal activity, inhibition, SS
[7] = read-out: Fungicidal activity, inhibition, PP
[8] = read-out: Fungicidal activity, inhibition, AS
[9] = read-out: Fungicidal activity, inhibition, RC
[10] = read-out: Fungicidal activity, inhibition, PS
[11] = read-out: Fungicidal activity, inhibition, BC
[12] = read-out: Fungicidal activity, inhibition, PI
[13] = read-out: Fungicidal activity (inhibition) against GZ: wheat Gibberella zeae
[14] = read-out: Fungicidal activity, inhibition, GZ
[15] = read-out: Fungicidal activity, inhibition, CA
[16] = read-out: Fungicidal activity (inhibition) against RC: Rhizoctonia cerealis
[17] = read-out: Fungicidal activity (inhibition) against PI: Phytophthora infestans (Mont) de Bary
[18] = read-out: Fungicidal activity (inhibition) against SS: Sclerotinia sclerotiorum

SMILES	melting point [°C]	inhibition at 50 µg/mL (Sclerotinia sclerotiorum; [6]) [%]	inhibition at 50 µg/mL (Physalospora piricola; [7]) [%]	inhibition at 50 µg/mL (Alternaria solani; [8]) [%]	inhibition at 50 µg/mL (Rhizoctonia cerealis; [9]) [%]	inhibition at 50 µg/mL (Pellicularia sasakii; [10]) [%]	inhibition at 100 µg/mL [1] [%]	inhibition at 100 µg/mL [2] [%]	inhibition at 50 µg/mL (Botrytis cinerea; [11]) [%]	inhibition at 100 µg/mL [3] [%]	inhibition at 50 µg/mL [4, 12] [%]	inhibition at 50 µg/mL (wheat Gibberella zeae; [13]) [%]	inhibition at 50 µg/mL (wheat Gibberella zeae; [14]) [%]	inhibition at 100 µg/mL [5] [%]	inhibition at 50 µg/mL (Cercospora arachidicola; [15]) [%]	inhibition at 50 µg/mL (Sclerotinia sclerotiorum; [18]) [%]	further results
Cc1nnsc1/C=C(\NC(=O)c1ccccc1)C(=O)O [Compound 71, (Z)-2-benzoylamino-3-[5-(4-methyl-1,2,3-thiadiazol)]propenoic acid]	215 to 217	47	6	14	18	9	67	27	12	0	21	86	86	53	24	–	–
CC(C)(C)OC(=O)N1CCC(c2nc(/C=C(\NC(=O)c3ccccc3)C(=O)N3CCC(O)(c4ccc(Br)cc4)CC3)cs2)CC1 [Compound 29, (Z)-N-[1-[[4-(4-bromophenyl)-4-hydroxy-1-piperidinyl]carbonyl]-2-[4-[2-[4-(1-Boc-piperidine)]thiazol]]ethenyl]benzamide]	166 to 168	67	0	6	10	11	0	2	7	36	14	–	3	0	13	–	–
O=C(N/C(=C\c1ccco1)C(=O)N1CCC(O)(c2ccc(Br)cc2)CC1)C1CCCCC1 [Compound 63, (Z)-N-[1-[[4-(4-bromophenyl)-4-hydroxy-1-piperidinyl]carbonyl]-2-(2-furanyl)ethenyl]cyclohexanecarboxamide]	121 to 123	44	18	29	21	14	50	9	35	36	21	–	57	53	24	–	–
CC(C)(C)OC(=O)N1CCC(c2nc(/C=C(\NC(=O)c3ccccc3)C(=O)NCC(F)F)cs2)CC1 [Compound 43, (Z)-N-[1-[(2,2-difluoroethylamino)carbonyl]-2-[4-[2-[4-(1-Boc-piperidine)]thiazol]]ethenyl]benzamide]	164 to 165	96	40	43	38	39	27	31	40	30	38	–	36	2	32	–	EC90 (Sclerotinia sclerotiorum; read-out: EC90 against S. sclerotiorum in vitro): 154 µg/mL (≈ 295 µM); inhibition at 50 µg/mL (Rhizoctonia cerealis; [16]): 38%; inhibition at 50 µg/mL [4, 17]: 38%
O=C(N/C(=C\c1c[nH]cn1)C(=O)N1CCC(O)(c2ccc(Br)cc2)CC1)c1ccccc1 [Compound 26, (Z)-N-[1-[[4-(4-bromophenyl)-4-hydroxy-1-piperidinyl]carbonyl]-2-(4-imidazole)ethenyl]benzamide]	176 to 178	78	7	21	16	0	21	1	14	0	19	77	2	1	16	60 to 80	–
O=C(O)/C(=C/c1ccccc1)NC(=O)c1cccs1 [Compound 69, (Z)-2-(2-thiophanoylamino)-3-phenylpropenoic acid]	221 to 223	78	7	17	10	6	1	45	7	0	17	–	19	27	16	60 to 80	–
O=C(NC1CC1)/C(=C/c1ccccc1)NC(=O)c1ccccc1 [Compound 39, (Z)-N-[1-[(cyclopropylamino)carbonyl]-2-phenylethenyl]benzamide]	185 to 186	67	3	17	3	6	0	34	9	18	11	< 45	13	10	13	67	inhibition at 50 µg/mL (Physalospora piricola; read-out: Fungicidal activity (inhibition) against PP: Physalospora piricola): < 20%; inhibition at 50 µg/mL (Alternaria solani; read-out: Fungicidal activity (inhibition) against AS: Alternaria solani): < 30%; inhibition at 50 µg/mL (Rhizoctonia cerealis; [16]): < 20%; inhibition at 50 µg/mL (Pellicularia sasakii; read-out: Fungicidal activity (inhibition) against PS: Pellicularia sasakii): < 30%; inhibition at 50 µg/mL (Botrytis cinerea; read-out: Fungicidal activity (inhibition) against BC: Botrytis cinerea): ≤ 20%; inhibition at 50 µg/mL [4, 17]: < 25%; inhibition at 50 µg/mL (Cercospora arachidicola; read-out: Fungicidal activity (inhibition) against CA: Cercospora arachidicola): < 25%
O=C(N/C(=C\c1ccccc1)C(=O)N1CCC(O)(c2ccc(Br)cc2)CC1)c1ccc(Br)cc1 [Compound 8, (Z)-N-[1-[[4-(4-bromophenyl)-4-hydroxy-1-piperidinyl]carbonyl]-2-phenylethenyl]-4-bromobenzamide]	186 to 188	50	6	21	23	20	19	50	18	0	26	–	29	1	18	–	–
O=C(NCc1ccc(C(F)(F)F)cc1)/C(=C/c1ccccc1)NC(=O)c1ccccc1 [Compound 57, N-[(1Z)-2-phenyl-1-[[(4-trifluoromethylphenylmethyl)amino]carbonyl]ethenyl]benzamide]	167 to 168	50	0	16	10	19	61	0	10	52	0	–	31	4	4	–	–
